# Experimental data reported in patent publication US9518060B2, “Substituted pyrrolo[3,4-c]pyrazoles as PKC kinase inhibitors” (PFIZER INC., priority 2007, dated 2016).
# pKi: −log10 of the molar value. Structures can show the parent of a compound that is named as a salt.
# Biological target: Protein Kinase C beta 2 (PKCβII) (Homo sapiens (Human), UniProt P05771)
# Assay: PKCβII coupled spectrophotometric kinase assay (PK/LDH, NADH absorbance at 340 nm)
# Format: biochemical
# Conditions: apparent Ki, ATP competitive inhibition model (Morrison equation); 0.1 mM ATP, 5 nM PKC, 30° C.; read-out: Ki app
# Method: Protein Kinase C beta 2 (PKCβII) catalyzes the production of ADP from ATP that accompanies the phosphoryl transfer to the PKC Pseudosubstrate peptide (A→S, RFARKGSLRQKNV). This transfer is coupled to the oxidation of β-NADH through the activities of Pyruvate Kinase (PK) and Lactate Dehydrogenase (LDH). β-NADH conversion to NAD+ is monitored by the decrease in absorbance at 340 nm (e=6.22 cm^−1 mM^−1) using a Molecular Devices SPECTRA max PLUS spectrophotometer.
# A typical assay was carried out on a 96-well, clear microtiter plate in a Molecular Devices spectrophotometer for 20 minutes at 30° C. in 0.1 mL of assay buffer containing 50 mM HEPES, pH 7.4, 5 nM PKC, 23 units of pyruvate kinase, 33 units of lactate dehydrogenase, 0.15 mM peptide, 0.1 mM ATP, 1 mM DTT, 4 mM PEP, 8 mM MgCl2, 0.3 mM NADH, 60 mM CaCl2, 10 mg/mL PS, 50 ng/mL PMA, 7.5% DMSO and from about 10,000 nM to 0.169 nM compound inhibitor. Stock solutions of 3-sn-phosphatidyl-L-serine (PS) and phorbol-12-myristate-13-acetate (PMA) were sonicated for 30 seconds just prior to addition to assay buffer and assays were initiated by the addition of 100 μM ATP.
# Steady-state kinetic parameters for the bi-bi kinase reaction were determined at saturating phospho-acceptor peptide substrate concentration (0.15 mM) by fitting initial velocity data to the Michaelis-Menten equation, v=Vmax[S]/(KM+[S]) where v is the measured initial velocity, Vmax is the maximal enzyme velocity, [S] is the ATP substrate concentration, and KM is the Michealis constant for ATP. Enzyme turnover values (kcat) were calculated according to […], where [E] is the total enzyme concentration. Enzyme inhibition constants (apparent Ki values) were determined by fitting initial velocities at variable inhibitor concentrations to a model for ATP competitive inhibition based on the Morrison equation). Morrison, J. F., Biochim. Biophys Acta 185: 269-286 (1969).
# Chain of Protein Kinase C beta 2 (PKCβII) (P05771 other isoform, or with tags, fused parts or gaps): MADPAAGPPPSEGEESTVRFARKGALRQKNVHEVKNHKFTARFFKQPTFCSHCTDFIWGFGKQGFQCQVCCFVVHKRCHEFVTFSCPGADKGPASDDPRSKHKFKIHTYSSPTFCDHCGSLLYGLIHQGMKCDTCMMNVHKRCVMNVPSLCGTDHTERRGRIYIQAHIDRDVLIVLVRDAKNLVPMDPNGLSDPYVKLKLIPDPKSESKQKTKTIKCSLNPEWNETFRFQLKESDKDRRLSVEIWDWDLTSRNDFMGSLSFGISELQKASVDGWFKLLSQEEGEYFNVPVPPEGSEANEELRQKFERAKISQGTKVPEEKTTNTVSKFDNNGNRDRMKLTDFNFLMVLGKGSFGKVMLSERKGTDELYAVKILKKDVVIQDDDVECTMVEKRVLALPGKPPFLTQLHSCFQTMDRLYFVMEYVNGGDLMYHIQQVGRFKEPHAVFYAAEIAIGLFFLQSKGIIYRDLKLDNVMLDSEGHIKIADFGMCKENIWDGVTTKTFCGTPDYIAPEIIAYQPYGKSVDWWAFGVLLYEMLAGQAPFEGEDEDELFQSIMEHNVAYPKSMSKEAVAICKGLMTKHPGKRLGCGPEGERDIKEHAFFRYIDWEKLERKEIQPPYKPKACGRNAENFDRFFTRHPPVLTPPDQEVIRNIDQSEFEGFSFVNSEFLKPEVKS
row,SMILES,pKi
1,"CCNc1ncc(F)c(Nc2n[nH]c3c2CN(C(=O)N2C[C@@H](C)N(C4CCOCC4)C[C@@H]2C)C3(C)C)n1 [Example A12, N^4-(5-{[(2S,5R)-2,5-dimethyl-4-(tetrahydro-2H-pyran-4-yl)piperazin-1-yl]carbonyl}-6,6-dimethyl-1,4,5,6-tetrahydropyrrolo[3,4-c]pyrazol-3-yl)-N^2-ethyl-5-fluoropyrimidine-2,4-diamine]",> 8.00
2,"CCOc1nccc(Nc2n[nH]c3c2CN(C(=O)N2C[C@@H](C)N(C)C[C@@H]2C)C3(C)C)n1 [Example E3, N-(2-ethoxypyrimidin-4-yl)-6,6-dimethyl-5-{[(2S,5R)-2,4,5-trimethylpiperazin-1-yl]carbonyl}-1,4,5,6-tetrahydropyrrolo[3,4-c]pyrazol-3-amine]",7.88
3,"CCc1ncc(F)c(Nc2n[nH]c3c2CN(C(=O)C2(F)CCN(C)CC2)C3(C)C)n1 [Example G1, N-(2-ethyl-5-fluoropyrimidin-4-yl)-5-[(4-fluoro-1-methylpiperidin-4-yl)carbonyl]-6,6-dimethyl-1,4,5,6-tetrahydropyrrolo[3,4-c]pyrazol-3-amine]",7.60
4,"CC(C)c1ncc(F)c(Nc2n[nH]c3c2CN(C(=O)N2CC(C)(C)N(C)C[C@@H]2C)C3(C)C)n1 [Example I2, N-(5-fluoro-2-isopropylpyrimidin-4-yl)-6,6-dimethyl-5-{[(2S)-2,4,5,5-tetramethylpiperazin-1-yl]carbonyl}-1,4,5,6-tetrahydropyrrolo[3,4-c]pyrazol-3-amine]",8.44
5,"Cc1ncc(F)c(Nc2n[nH]c3c2CN(C(=O)N2CC(CCO)N(C)C[C@@H]2C)C3(C)C)n1 (single isomer, unassigned) [Example H9]",7.24
6,"Cc1cccc(Nc2n[nH]c3c2CN(C(=O)N2C[C@@H](C)N(C)C[C@@H]2C)C3(C)C)n1 [Example J8, 6,6-dimethyl-N-(6-methylpyridin-2-yl)-5-{[(2S,5R)-2,4,5-trimethylpiperazin-1-yl]carbonyl}-1,4,5,6-tetrahydropyrrolo[3,4-c]pyrazol-3-amine]",7.49
7,"Cc1ccnc(Nc2n[nH]c3c2CN(C(=O)N2C[C@@H](C)N(CC4CCOCC4)C[C@@H]2C)C3(C)C)n1 [Example J15, 5-{[(2S,5R)-2,5-dimethyl-4-(tetrahydro-2H-pyran-4-ylmethyl)piperazin-1-yl]carbonyl}-6,6-dimethyl-N-(4-methylpyrimidin-2-yl)-1,4,5,6-tetrahydropyrrolo[3,4-c]pyrazol-3-amine]",> 8.00
8,"CCNc1ncc(F)c(Nc2n[nH]c3c2CN(C(=O)N2C[C@@H]4CCCN4C[C@@H]2C)C3(C)C)n1 [Example B2, N^4-(6,6-dimethyl-5-{[(3S,8aS)-3-methylhexahydropyrrolo[1,2-a]pyrazin-2(1H)-yl]carbonyl}-1,4,5,6-tetrahydropyrrolo[3,4-c]pyrazol-3-yl)-N^2-ethyl-5-fluoropyrimidine-2,4-diamine]",7.61
9,"CC(C)CNc1ncc(F)c(Nc2n[nH]c3c2CN(C(=O)N2CC(C)(C)N(C)C[C@@H]2C)C3(C)C)n1 [Example A4, N^4-(6,6-dimethyl-5-{[(2S)-2,4,5,5-tetramethylpiperazin-1-yl]carbonyl}-1,4,5,6-, tetrahydropyrrolo[3,4-c]pyrazol-3-yl)-5-fluoro-N^2-isobutylpyrimidine-2,4-diamine acetate salt]",7.42
10,"COc1ccnc(Nc2n[nH]c3c2CN(C(=O)N2C[C@@H](C)N(C4CCOCC4)C[C@@H]2C)C3(C)C)n1 [Example J11, 5-{[(2S,5R)-2,5-dimethyl-4-(tetrahydro-2H-pyran-4-yl)piperazin-1-yl]carbonyl}-N-(4-methoxypyrimidin-2-yl)-6,6-dimethyl-1,4,5,6-tetrahydropyrrolo[3,4-c]pyrazol-3-amine]",> 8.00
11,"Cc1ncc(F)c(Nc2n[nH]c3c2CN(C(=O)N2C[C@@H](C)N(C4CCOCC4)C[C@@H]2C)C3(C)C)n1 [Example H7, 5-{[(2S,5R)-2,5-dimethyl-4-(tetrahydro-2H-pyran-4-yl)piperazin-1-yl]carbonyl}-N-(5-fluoro-2-methylpyrimidin-4-yl)-6,6-dimethyl-1,4,5,6-tetrahydropyrrolo[3,4-c]pyrazol-3-amine]",7.66

# More lines, now with the values ahead:
row,pKi,SMILES
1,6.89,"CCOc1ncc(F)c(Nc2n[nH]c3c2CN(C(=O)C2CCN(CCC(F)(F)F)CC2)C3(C)C)n1 [Example L5, N-(2-ethoxy-5-fluoropyrimidin-4-yl)-6,6-dimethyl-5-{[1-(3,3,3-trifluoropropyl)piperidin-4-yl]carbonyl}-1,4,5,6-tetrahydropyrrolo[3,4-c]pyrazol-3-amine]"
2,7.37,"COCCOc1ncc(F)c(Nc2n[nH]c3c2CN(C(=O)N2CC(C)(C)N(C)C[C@@H]2C)C3(C)C)n1 [Example K11, N-[5-fluoro-2-(2-methoxyethoxy)pyrimidin-4-yl]-6,6-dimethyl-5-{[(2S)-2,4,5,5-tetramethylpiperazin-1-yl]carbonyl}-1,4,5,6-tetrahydropyrrolo[3,4-c]pyrazol-3-amine]"
3,8.48,"CCOc1ncc(F)c(Nc2n[nH]c3c2CN(C(=O)N2C[C@@H](C)N(CCOC)C[C@@H]2C)C3(C)C)n1 [Example K4, N-(2-ethoxy-5-fluoropyrimidin-4-yl)-5-{[(2S,5R)-4-(2-methoxyethyl)-2,5-dimethylpiperazin-1-yl]carbonyl}-6,6-dimethyl-1,4,5,6-tetrahydropyrrolo[3,4-c]pyrazol-3-amine]"
4,7.72,"CCN1C[C@H](C)N(C(=O)N2Cc3c(Nc4nc(C)ncc4F)n[nH]c3C2(C)C)C[C@H]1C [AA2, 5-{[(2S,5R)-4-ethyl-2,5-dimethylpiperazin-1-yl]carbonyl}-N-(5-fluoro-2-methylpyrimidin-4-yl)-6,6-dimethyl-1,4,5,6-tetrahydropyrrolo[3,4-c]pyrazol-3-amine]"
5,7.59,"CCOc1ncc(F)c(Nc2n[nH]c3c2CN(C(=O)N2C[C@@H]4CCCN4C[C@@H]2C(C)C)C3(C)C)n1 [Example K20, N-(2-ethoxy-5-fluoropyrimidin-4-yl)-5-{[(3S,8aS)-3-isopropylhexahydropyrrolo[1,2-a]pyrazin-2(1H)-yl]carbonyl}-6,6-dimethyl-1,4,5,6-tetrahydropyrrolo[3,4-c]pyrazol-3-amine]"
6,7.60,"CCOc1ncc(F)c(Nc2n[nH]c3c2CN(C(=O)N2C[C@@H](C)N(CCC(F)(F)F)C[C@@H]2C)C3(C)C)n1 [Example K18, 5-{[(2S,5R)-2,5-dimethyl-4-(3,3,3-trifluoropropyl)piperazin-1-yl]carbonyl}-N-(2-ethoxy-5-fluoropyrimidin-4-yl)-6,6-dimethyl-1,4,5,6-tetrahydropyrrolo[3,4-c]pyrazol-3-amine]"
7,8.68,"CCOc1ncc(F)c(Nc2n[nH]c3c2CN(C(=O)N2C[C@@H](C)N(CC)C[C@@H]2C)C3(C)C)n1 [Example K2, N-(2-ethoxy-5-fluoropyrimidin-4-yl)-6,6-dimethyl-5-{[4-ethyl(2S,5R)-2,5-dimethylpiperazin-1-yl]carbonyl}-1,4,5,6-tetrahydropyrrolo[3,4-c]pyrazol-3-amine]"
8,7.35,"CCOc1ncc(F)c(Nc2n[nH]c3c2CN(C(=O)N2CCN(C)[C@H](C)C2)C3(C)C)n1 [Example K17, 5-{[(3R)-3,4-dimethylpiperazin-1-yl]carbonyl}-N-(2-ethoxy-5-fluoropyrimidin-4-yl)-6,6-dimethyl-1,4,5,6-tetrahydropyrrolo[3,4-c]pyrazol-3-amine]"
9,9.74,"C[C@H]1CN(C)C(C)(C)CN1C(=O)N1Cc2c(Nc3nc(OCC(F)(F)F)ncc3F)n[nH]c2C1(C)C [Example K8, N-[5-fluoro-2-(2,2,2-trifluoroethoxy)pyrimidin-4-yl]-6,6-dimethyl-5-{[(2S)-2,4,5,5-tetramethylpiperazin-1-yl]carbonyl}-1,4,5,6-tetrahydropyrrolo[3,4-c]pyrazol-3-amine]"
10,7.54,"Cc1ncc(F)c(Nc2n[nH]c3c2CN(C(=O)N2C[C@@H](C)N(CCCO)C[C@@H]2C)C3(C)C)n1 (stereo in doubt) [AA5, [3-(5-fluoro-2-methyl-pyrimidin-4-ylamino)-6,6-dimethyl-4,6-dihydro-1H-pyrrolo[3,4-c]pyrazol-5-yl]-[4-(3-hydroxy-propyl)-2,5-dimethyl-piperazin-1-yl]-methanone]"
11,9.04,"CCOc1ncc(F)c(Nc2n[nH]c3c2CN(C(=O)N2CC(C)(C)N(C)C[C@@H]2C)C3(C)C)n1 [Example K3, N-(2-ethoxy-5-fluoropyrimidin-4-yl)-6,6-dimethyl-5-{[(2S)-2,4,5,5-tetramethylpiperazin-1-yl]carbonyl}-1,4,5,6-tetrahydropyrrolo[3,4-c]pyrazol-3-amine]"
12,> 8.00,"CCOc1ncc(F)c(Nc2n[nH]c3c2CN(C(=O)N2CC(CCO)N(C)C[C@@H]2C)C3(C)C)n1 (stereo partly drawn) [Example K23, 2-((5S)-4-{[3-[(2-ethoxy-5-fluoropyrimidin-4-yl)amino]-6,6-dimethyl-4,6-dihydropyrrolo[3,4-c]pyrazol-5(1H)-yl]carbonyl}-1,5-dimethylpiperazin-2-yl)ethanol]"
